Measurements from patent publication US10370370B2, “Aminobenzisoxazole compounds as agonists of α7-nicotinic acetylcholine receptors” (FORUM PHARMACEUTICALS, INC., priority 2015, dated 2019).
Structures can show the parent of a compound that is named as a salt.

Molecular target: human α7 nAChR (Homo sapiens (Human), UniProt P36544)
Assay: not given
Assay type: binding
Conditions: above described assay provided by Cerep

Chain of human α7 nAChR (P36544 23-502 limits assumed): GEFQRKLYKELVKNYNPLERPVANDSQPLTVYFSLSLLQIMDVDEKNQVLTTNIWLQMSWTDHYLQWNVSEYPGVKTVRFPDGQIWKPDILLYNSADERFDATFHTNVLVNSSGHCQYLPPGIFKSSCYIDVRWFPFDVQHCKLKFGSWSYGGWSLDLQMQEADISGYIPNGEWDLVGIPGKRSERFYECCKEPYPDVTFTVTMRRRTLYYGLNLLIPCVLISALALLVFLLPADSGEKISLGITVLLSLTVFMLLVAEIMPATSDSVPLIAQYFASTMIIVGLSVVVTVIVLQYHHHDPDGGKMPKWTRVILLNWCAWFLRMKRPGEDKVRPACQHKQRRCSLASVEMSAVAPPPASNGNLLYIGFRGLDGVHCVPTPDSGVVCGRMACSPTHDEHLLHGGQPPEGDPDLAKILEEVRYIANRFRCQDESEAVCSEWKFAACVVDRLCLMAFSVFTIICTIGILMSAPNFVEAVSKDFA

For Cc1ccc(-c2ccc(OC3CN4CCC3CC4)cn2)cc1 (stereo not shown) [AQW051], which Ki is on record?
The Ki was 0.255 µM.

Molecular target: human 5-HT3 serotonin receptors (Homo sapiens (Human), UniProt P46098)
Assay: [3H]BRL 43694 competition binding (Cerep)
Conditions: CHO cell membranes expressing human 5-HT3 receptors

Chain of human 5-HT3 serotonin receptors (P46098 24-478): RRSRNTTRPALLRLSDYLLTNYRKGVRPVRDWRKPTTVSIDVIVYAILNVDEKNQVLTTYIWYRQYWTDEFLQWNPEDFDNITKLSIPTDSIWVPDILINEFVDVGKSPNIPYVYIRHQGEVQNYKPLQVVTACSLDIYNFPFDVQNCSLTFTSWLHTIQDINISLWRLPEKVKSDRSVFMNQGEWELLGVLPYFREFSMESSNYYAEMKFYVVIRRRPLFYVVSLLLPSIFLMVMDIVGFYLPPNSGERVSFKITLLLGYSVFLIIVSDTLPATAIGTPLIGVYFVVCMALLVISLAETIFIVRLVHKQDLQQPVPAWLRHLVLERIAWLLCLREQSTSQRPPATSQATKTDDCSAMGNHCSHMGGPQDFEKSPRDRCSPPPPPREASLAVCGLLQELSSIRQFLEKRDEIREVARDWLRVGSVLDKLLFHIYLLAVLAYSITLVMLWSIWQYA

For Cc1c(Cl)ccc2c(N[C@H]3CN4CCC3CC4)noc12 [Compound (R)-23, (R)-6-chloro-7-methyl-N-(quinuclidin-3-yl)benzo[d]isoxazol-3-amine hydrochloride], which Ki is on record?
The Ki was 0.19 µM.

Molecular target: human α7 nAChRs transiently expressed in Xenopus laevis oocytes (Homo sapiens (Human), UniProt P36544)
Assay: Oocyte Electrophysiology Screen (two-electrode voltage-clamp, HiQScreen)
Assay type: cell-based
Conditions: test compound at 0.01 mM, response as percentage of that evoked by 0.2 mM ACh; hydrochloride
Protocol: Oocyte Electrophysiology Screen (% ACh @ 10 μM Oocyte)
The Oocyte Electrophysiology Screen studies were performed under contract by HiQScreen Geneva, Switzerland. All experiments were carried out at human α7 nAChRs transiently expressed in Xenopus laevis oocytes using the method of cDNA expression. Currents evoked by acetylcholine or other agonist ligands were recorded using the standard two-electrode voltage-clamp configuration (TEVC). X. laevis oocytes were prepared and injected using standard procedures. Briefly, ovaries were harvested from X. laevis females that were deeply anesthetized and pithed following the animal rights rule from the Geneva canton. A small piece of ovary was isolated for immediate preparation while the remaining part was placed at 4° C. in a sterile Barth solution containing in mM: NaCl 88, KCl 1, NaHCO3 2.4, HEPES 10, MgSO4.7H2O 0.82, Ca(NO3)2.4H2O 0.33, CaCl2.6H2O 0.41, at pH 7.4, and supplemented with 20 μg/mL of kanamycin, 100 unit/mL penicillin and 100 μg/mL streptomycin. On the second day following dissociation, oocytes were injected with 2 ng of cDNA per oocyte containing the gene encoding human α7 nicotinic acetylcholine receptor subunits using an automated injector (Hogg et al., 2008). All recordings were performed at 18° C. and cells were superfused with OR2 medium containing in mM: NaCl 82.5, KCl 2.5, HEPES 5, CaCl2.2H2O 2.5, pH 7.4. Cells were held at −80 mV. Data were filtered at 10 Hz, captured at 100 Hz and analyzed using proprietary data acquisition and analysis software running under Matlab (Mathworks Inc.).
Experimental Protocol and Analysis
After establishing a baseline transmembrane current, acetylcholine (ACh) was applied for 5 seconds at a concentration of 0.2 mM to establish a control ACh-evoked current response. Following a wash period of 90 s in OR2 medium (free of ACh), cells were then exposed for 30 s to the test compound applied at 0.01 mM. The same reference ACh test pulse was immediately given at the end of the compound exposure and again after 90 s of recovery in OR2 Medium (free of ACh or test compound). All data were determined in triplicate. The response evoked by the test compound was expressed as a percentage of that evoked by ACh: Response (% ACh)=100×(Itest/IACh) where Itest is the peak inward current measured during exposure to 0.01 mM of test compound and IACh is the peak inward current measured in the presence of ACh.
Results are provided in Table 2 (reported as % ACh @ 10 μM Oocyte).

Chain of human α7 nAChRs transiently expressed in Xenopus laevis oocytes (P36544 23-502 limits assumed): as the sequence (P36544 23-502 limits assumed) above

For Clc1ccc2c(NC3CN4CCC3CC4)noc2c1 (single isomer, unassigned; enantiomer1) [Compound 3-P1, 6-chloro-N-(quinuclidin-3-yl)benzo[d]isoxazol-3-amine-enantiomer1 hydrochloride], which “% ACh @ 10 μM Oocyte” value is on record?
The value was 465 % ACh.

With Clc1cccc2c(NC3CN4CCC3CC4)noc12 (single isomer, unassigned; enantiomer2) [Compound 2-P2, 7-chloro-N-(quinuclidin-3-yl)benzo[d]isoxazol-3-amine-enantiomer2 hydrochloride] as the molecule, how does the “% ACh @ 10 μM Oocyte” value read?
Its value is 363 % ACh.

For FC(F)(F)c1ccc2c(NC3CN4CCC3CC4)noc2c1 (single isomer, unassigned; enantiomer2) [Compound 8-P2, N-(quinuclidin-3-yl)-6-(trifluoromethyl)benzo[d]isoxazol-3-amine-enantiomer2 hydrochloride], which “% ACh @ 10 μM Oocyte” value is on record?
The value was 221 % ACh.

With c1cc2c(NC3CN4CCC3CC4)noc2cc1C1CC1 (single isomer, unassigned; enantiomer1) [Compound 6-P1, 6-cyclopropyl-N-(quinuclidin-3-yl)benzo[d]isoxazol-3-amine-enantiomer1 hydrochloride] as the molecule, how does the “% ACh @ 10 μM Oocyte” value read?
Its value is 157 % ACh.

For Clc1ccc2c(NC3CN4CCC3CC4)noc2c1 (single isomer, unassigned; enantiomer2) [Compound 3-P2, 6-chloro-N-(quinuclidin-3-yl)benzo[d]isoxazol-3-amine-enantiomer2 hydrochloride], which “% ACh @ 10 μM Oocyte” value is on record?
Its value is 379 % ACh.

For COc1ccc2c(NC3CN4CCC3CC4)noc2c1 (single isomer, unassigned; enantiomer2) [Compound 7-P2, 6-methoxy-N-(quinuclidin-3-yl)benzo[d]isoxazol-3-amine-enantiomer2 hydrochloride], which “% ACh @ 10 μM Oocyte” value is on record?
The value was 427 % ACh.

With Clc1ccc2onc(NC3CN4CCC3CC4)c2c1 (single isomer, unassigned; enantiomer1) [Compound 4-P1, 5-chloro-N-(quinuclidin-3-yl)benzo[d]isoxazol-3-amine-enantiomer1 hydrochloride] as the molecule, how does the “% ACh @ 10 μM Oocyte” value read?
Its value is 326 % ACh.

With Clc1cccc2c(NC3CN4CCC3CC4)noc12 (single isomer, unassigned; enantiomer1) [Compound 2-P1, 7-chloro-N-(quinuclidin-3-yl)benzo[d]isoxazol-3-amine-enantiomer1 hydrochloride] as the molecule, how does the “% ACh @ 10 μM Oocyte” value read?
The value was 418 % ACh.

With Cc1ccc2c(NC3CN4CCC3CC4)noc2c1 (single isomer, unassigned; enantiomer1) [Compound 5-P1, 6-methyl-N-(quinuclidin-3-yl)benzo[d]isoxazol-3-amine-enantiomer1 hydrochloride] as the molecule, how does the “% ACh @ 10 μM Oocyte” value read?
The value was 548 % ACh.

With c1ccc2c(NC3CN4CCC3CC4)noc2c1 (single isomer, unassigned; enantiomer1) [Compound 1-P1] as the molecule, how does the “% ACh @ 10 μM Oocyte” value read?
Its value is 483 % ACh.

For Clc1ccc2onc(NC3CN4CCC3CC4)c2c1 (single isomer, unassigned; enantiomer2) [Compound 4-P2, 5-chloro-N-(quinuclidin-3-yl)benzo[d]isoxazol-3-amine-enantiomer2 hydrochloride], which “% ACh @ 10 μM Oocyte” value is on record?
Its value is 17 % ACh.

Which “% ACh @ 10 μM Oocyte” value does the source give for c1cc2c(NC3CN4CCC3CC4)noc2cc1C1CC1 (single isomer, unassigned; enantiomer2) [Compound 6-P2, 6-cyclopropyl-N-(quinuclidin-3-yl)benzo[d]isoxazol-3-amine-enantiomer2 hydrochloride] here?
Its value is 355 % ACh.

With Cc1ccc2c(NC3CN4CCC3CC4)noc2c1 (single isomer, unassigned; enantiomer2) [Compound 5-P2, 6-methyl-N-(quinuclidin-3-yl)benzo[d]isoxazol-3-amine-enantiomer2 hydrochloride] as the molecule, how does the “% ACh @ 10 μM Oocyte” value read?
Its value is 645 % ACh.

Which “% ACh @ 10 μM Oocyte” value does the source give for COc1ccc2c(NC3CN4CCC3CC4)noc2c1 (single isomer, unassigned; enantiomer1) [Compound 7-P1, 6-methoxy-N-(quinuclidin-3-yl)benzo[d]isoxazol-3-amine-enantiomer1 hydrochloride] here?
The value was 326 % ACh.

With FC(F)(F)c1ccc2c(NC3CN4CCC3CC4)noc2c1 (single isomer, unassigned; enantiomer1) [Compound 8-P1, N-(quinuclidin-3-yl)-6-(trifluoromethyl)benzo[d]isoxazol-3-amine-enantiomer1 hydrochloride] as the molecule, how does the “% ACh @ 10 μM Oocyte” value read?
Its value is 26 % ACh.

Which “% ACh @ 10 μM Oocyte” value does the source give for c1ccc2c(NC3CN4CCC3CC4)noc2c1 (single isomer, unassigned; enantiomer2) [Compound 1-P2, N-(quinuclidin-3-yl)benzo[d]isoxazol-3-amine-enantiomer2 hydrochloride] here?
The value was 206 % ACh.

Molecular target: recombinantly expressed human α7-nAChR (Homo sapiens (Human), UniProt P36544)
Assay: not given
Conditions: [125I] α-BTX radioligand, read-out: Ki (lit); cited from earlier work

Chain of recombinantly expressed human α7-nAChR (P36544 23-502 limits assumed): as above

Which Ki does the source give for Cc1ccc(-c2ccc(OC3CN4CCC3CC4)cn2)cc1 (stereo not shown) [AQW051] here?
Its Ki is 0.028 µM.
